Test [1] concerns mouse ventricular myocytes. The experiment in a line: Action potentials in paced mouse ventricular myocytes (current clamp). The test is classed as cell-based. The following applies: C-PAF 185 nM. On the procedure: Adult mice, 2-3 months old, were anesthetized with ketamine/xylazine and their hearts were removed according to protocols approved by the Columbia University-IACUC. Experiments were performed on single rod-shaped, quiescent ventricular myocytes dissociated using a standard retrograde collagenase perfusion (Kuznetsov V et al. (1995) Circ Res 76: 40-52) from hearts of mice that were either wild-type (WT), or PAFR knockouts (KO). Both WT and KO mice were bred on a C57/B16 background. The derivation of the KO mice has been described previously (Hoffman, B F et al.(1996) J Cardiovasc Electrophysiol 7:120-133).
Prior to electrophysiological measurements, cells were placed into the perfusion chamber and superfused at room temperature with Tyrode's buffer (in mM: NaCl, 140; KCl, 5.4; CaCl2 1; MgCl2, Hepes, 5; Glucose, 10; pH 7.4). […]
Current and voltage protocols were generated using Clampex 7.0 software applied by means of an Axopatch 200B amplifier and a Digidata 1200 interface (Axon Instruments). […] Data were analyzed using pCLAMP 8.0 (Axon) and Origin 6.0 (Microcal) and are presented as mean±SEM. Steady-state current was determined by computer calculation of average current over a time period of at least 5 s. […] Records have been corrected for the junction potential, which was measured to be 9.8 mV.

Test [2] relates to murine TASK-1 T381A mutant. The test is described as follows: T381A mutant TASK-1 current in CHO cells. The test is classed as cell-based, mouse. The following applies: +30 mV, C-PAF 185 nM. On the procedure:
pCMV-TASK1 (cTBAK) consists of a 1.9 kb sequence of murine TASK-1 inserted in pcDNA3.1 (a kind gift of Dr. Yoshihisa Kurachi, University of Osaka, Japan) and has been previously described (Leonoudakis D et al. (1998) J Neurosci 18: 868-877). pEGFP-C1 and pIRES-EGFP were purchased from Clontech. pTIE (TASK1-IRES-EGFP) was constructed by inserting a 1.9 kb EcoR1 fragment from pCMV-TASK1 into EcoR1 digested pIRES-EGFP. Site-directed mutagenesis was performed on pTIE using the Quik-Change kit (Stratagene) following the manufacturer's instructions. […]
Cells were either co-transfected with pCMV-TASK1 together with pEGFP-C1 (1 μg total, 3:1) or transfected with […] or T381A-pTIE (1 μg). 48 h after the transfection the cells were checked under the microscope for green fluorescence. […]
The myocyte suspension or the coverslip with CHO cells was placed into a perfusion chamber, mounted on the stage of an inverted microscope. […] Membrane potential and current were measured in the whole cell configuration using borosilicate glass pipettes with a tip resistance between […] and filled with a pipette solution containing (mM): aspartic acid, 130; KOH, 146; NaCl, 10; CaCl2, 2; EGTA, 5; HEPES, 10; MGATP, 2; pH 7.2. […] Myocytes treated with the peptides were monitored continuously beginning immediately after rupture to detect the occurrence of any arrhythmias during dialysis of the peptide. […]

The results in this text go back to patent US8097650B2, “Method of treating a condition associated with phosphorylation of TASK-1” (The Trustees of Columbia University In The City of New York, priority 2005, dated 2012).

As for `CCCCCCCCCCCCCCCCOC[C@H](COP(=O)([O-])OCC[N+](C)(C)C)OC(=O)NC` [C-PAF, carbamyl-platelet-activating factor], the “cells in which membrane potential returned to normal during agonist perfusion” value in test [1] (3 min perfusion) is 8 of 9. Further, the “delay before C-PAF-evoked responses” value in test [1] (paced WT myocytes) is 94 ± 21 s. Further, the “maximal current in the presence of C-PAF” value in test [2] is listed as 44.2±7 pA/pF.
